Measurements reported in patent US9776979B2, “EBI2 modulators” (Sanford-Burnham Medical Research Institute, priority 2013, dated 2017).

Target: EBI2 (Homo sapiens, UniProt P32249)
Assay: Cell-based luminescent assay (EBI2 modulation)
Conditions: cell-based luminescence; 7a,25-OHC final assay concentration 80 nM; 60 minutes incubation; read-out: IC50
Procedure, shortened: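 Cells plated overnight at 37° C, then exposed to compound at 4-5 uM final with 80 nM 7a,25-OHC agonist for 60 min at 37° C. Luminescence read after 60 min detection at 25° C in the dark; values normalized to neutral and stimulator controls and plate-pattern corrected.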

EBI2, sequence (P32249 whole entry): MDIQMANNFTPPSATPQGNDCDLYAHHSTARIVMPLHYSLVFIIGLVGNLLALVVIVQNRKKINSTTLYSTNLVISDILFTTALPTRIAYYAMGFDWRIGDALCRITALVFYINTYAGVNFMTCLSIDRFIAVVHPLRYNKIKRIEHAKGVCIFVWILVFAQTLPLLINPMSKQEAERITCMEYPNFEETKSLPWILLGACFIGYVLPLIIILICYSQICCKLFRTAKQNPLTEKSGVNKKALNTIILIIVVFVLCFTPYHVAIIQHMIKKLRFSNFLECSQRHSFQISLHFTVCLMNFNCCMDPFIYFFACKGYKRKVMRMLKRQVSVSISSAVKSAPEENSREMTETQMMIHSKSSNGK

IC50 [nM]	SMILES
100 to 500	O=C(Nc1cccc(F)c1)N1CCN(C(=O)c2cc3cc(Cl)ccc3[nH]2)CC1 [Compound C451, {4-[(5-chloroindol-2-yl)carbonyl]piperazinyl}-N-(3-fluorophenyl)carboxamide]
100 to 500	O=C(c1cc2ccccc2o1)N1CCN(Cc2ccc3c(c2)OCO3)CC1 [Compound C452, 4-(2H-benzo[d]1,3-dioxolan-5-ylmethyl)piperazinyl benzo[d]furan-2-yl ketone]
100 to 500	O=C(C#Cc1ccc(F)cc1)N1CCN(Cc2ccc(Cl)cc2)CC1 [Compound C461, 1-{4-[(4-chlorophenyl)methyl]piperazinyl}-3-(4-fluorophenyl)prop-2-yn-1-one]
100 to 500	O=C(C=Cc1ccc2c(c1)OCO2)N1CCN(Cc2ccc(F)cc2)CC1 [Compound C463, 3-(2H-benzo[3,4-d]1,3-dioxolan-5-yl)-1-{4-[(4-fluorophenyl)methyl]piperazinyl}prop-2-en-1-one]
100 to 500	O=C(c1cnc2ccccc2c1)N1CCN(Cc2ccc(Cl)cc2)CC1 [Compound C464, 4-[(4-chlorophenyl)methyl]piperazinyl 3-quinolyl ketone]

The remaining lines, values behind:

SMILES	IC50 [nM]
Cc1ccccc1/C=C/C(=O)N1CCN(S(=O)(=O)c2ccc(Br)cc2)CC1 [Compound C442, (2E)-1-{4-[(4-bromophenyl)sulfonyl]piperazinyl}-3-(2-methylphenyl)prop-2-en-1-one]	100 to 500
O=C(c1cc2ccc(Cl)cc2[nH]1)N1CCN(C(=O)c2ccc(F)cc2C(F)(F)F)CC1 [Compound C447, 6-chloroindol-2-yl 4-{[4-fluoro-2-(trifluoromethyl)phenyl]carbonyl}piperazinyl ketone]	100 to 500
CC(C)(C)c1ccc(S(=O)(=O)N2CCN(C(=O)/C=C/c3ccc(Cl)cc3F)CC2)cc1 [Compound C448, (2E)-1-(4-{[4-(tert-butyl)phenyl]sulfonyl}piperazinyl)-3-(4-chloro-2-fluorophenyl)prop-2-en-1-one]	100 to 500
O=C(c1cc2cc(Cl)ccc2[nH]1)N1CCC(NC2CCCC2)CC1 [Compound C449, 5-chloroindol-2-yl 4-(cyclopentylamino)piperidyl ketone]	100 to 500
O=C(Nc1ccc(F)c(C(F)(F)F)c1)N1CCN(C(=O)c2cc3cc(Cl)ccc3[nH]2)CC1 [Compound C450, {4-[(5-chloroindol-2-yl)carbonyl]piperazinyl}-N-[4-fluoro-3-(trifluoromethyl)phenyl]carboxamide]	100 to 500
Cc1ccc(/C=C/C(=O)N2CCN(C(c3ccccc3)c3ccccc3)CC2)cc1 [Compound C453, (2E)-1-[4-(diphenylmethyl)piperazinyl]-3-(4-methylphenyl)prop-2-en-1-one]	100 to 500
O=C(c1cc2cc(Cl)ccc2[nH]1)N1CCN(S(=O)(=O)c2ccc(-c3ccccc3)cc2)CC1 [Compound C454, 5-chloroindol-2-yl 4-[(4-phenylphenyl)sulfonyl]piperazinyl ketone]	100 to 500
O=C(/C=C/c1ccccc1F)N1CCN(S(=O)(=O)c2ccc(Br)cc2)CC1 [Compound C455, (2E)-1-{4-[(4-bromophenyl)sulfonyl]piperazinyl}-3-(2-fluorophenyl)prop-2-en-1-one]	100 to 500
O=C(Nc1ccc(C(F)(F)F)cc1)N1CCN(C(=O)c2cc3cc(Cl)ccc3[nH]2)CC1 [Compound C456, {4-[(5-chloroindol-2-yl)carbonyl]piperazinyl}-N-[4-(trifluoromethyl)phenyl]carboxamide]	100 to 500
O=C(C=Cc1ccc2c(c1)OCO2)N1CCN(C(=O)c2ccc(-c3nnn[nH]3)cc2)CC1 [Compound C457, 3-(2H-benzo[3,4-d]1,3-dioxolan-5-yl)-1-{4-[(4-(1H-1,2,3,4-tetraazol-5-yl)phenyl)carbonyl]piperazinyl}prop-2-en-1-one]	100 to 500
O=C(O)c1ccc(C(=O)N2CCN(C(=O)c3cc4cc(Cl)ccc4[nH]3)CC2)cc1 [Compound C460, 4-({4-[(5-chloroindol-2-yl)carbonyl]piperazinyl}carbonyl)benzoic acid]	100 to 500
